Here are results for four compounds from ChEMBL document CHEMBL5357085, “Synthesis and Evaluation of Natural and Unnatural Tetrahydrocannabiorcol for Its Potential Use in Neuropathologies” (J Nat Prod, 2024).

Series [1] deals with SH-SY5Y. Put plainly: Neuroprotective activity against corticosterone-induced cytotoxicity in human SH-SY5Y cells assessed as rescue of BDNF expression at 20 uM preincubated with compound for 2 hrs followed by corticosterone addition and measured 2 hrs after replacement with fresh media by ELISA (reference value: 5 pg/ml). Format: functional, cell-based. (In general: ELISA stands for enzyme-linked immunosorbent assay.)

Series [2] deals with SH-SY5Y. Put plainly: Cytotoxicity against human SH-SY5Y cells assessed as reduction in cell viability at 20 uM measured after 48 hrs by MTT assay. Format: toxicity, cell-based. (In general: Tetrazolium dyes change colour on reduction, which living cells bring about.)
The test system of series [3] is SH-SY5Y. Put plainly: Neuroprotective activity against corticosterone-induced cytotoxicity in human SH-SY5Y cells assessed as rescue of cell viability at 20 uM preincubated with compound for 24 hrs followed by corticosterone stimulation and measured after 48 hrs by MTT assay. Format: functional, cell-based. The following applies: time 72.0 hrs.
The test system of series [4] is SH-SY5Y. Put plainly: Neuroprotective activity against corticosterone-induced cytotoxicity in human SH-SY5Y cells assessed as […] at 20 uM preincubated with compound for 2 hrs followed by corticosterone addition and measured 2 hrs after replacement with fresh media by ELISA. Format: functional, cell-based.
The test system of series [5] is SH-SY5Y. Put plainly: Inhibition of corticosterone release in human SH-SY5Y cells at 20 uM incubated for 2 hrs by ELISA. Format: functional, cell-based.
For series [6], the system named is SH-SY5Y. Put plainly: Upregulation of BDNF expression in human SH-SY5Y cells at 20 uM incubated for 2 hrs by ELISA. It counts as functional, cell-based.
Series [7] in a line: Upregulation of BDNF expression in human SH-SY5Y cells at 5 nM incubated for 2 hrs by ELISA. It counts as functional.
For series [8], the system named is SH-SY5Y. Put plainly: Neuroprotective activity against corticosterone-induced cytotoxicity in human SH-SY5Y cells assessed as rescue of cell viability at 5 nM preincubated with compound for 24 hrs followed by corticosterone stimulation and measured after 48 hrs by MTT assay (reference value: 41%). It counts as functional. The settings on record: time 72 hrs.
The test system of series [9] is SH-SY5Y. Put plainly: Neuroprotective activity against corticosterone-induced cytotoxicity in human SH-SY5Y cells assessed as BDNF concentration at 5 nM preincubated with compound for 2 hrs followed by corticosterone addition and measured 2 hrs after replacement with fresh media by ELISA (reference value: 5 pg/ml). Format: functional.
Series [10] concerns SH-SY5Y. Put plainly: Cytotoxicity against human SH-SY5Y cells assessed as reduction in cell viability at 5 nM measured after 48 hrs by MTT assay. It counts as toxicity, cell-based. The settings on record: 0.005 µM.
Series [11] in a line: Downregulation of corticosterone release in human SH-SY5Y cells at 10 uM incubated for 2 hrs by ELISA. Format: functional.
Series [12] relates to SH-SY5Y. Put plainly: Neuroprotective activity against corticosterone-induced cytotoxicity in human SH-SY5Y cells assessed as rescue of cell viability at 10 uM preincubated with compound for 24 hrs followed by corticosterone stimulation and measured after 48 hrs by MTT assay (reference value: 41%). It counts as functional. The following applies: time 72 hrs.
Series [13] has as its system SH-SY5Y. Put plainly: Neuroprotective activity against corticosterone-induced cytotoxicity in human SH-SY5Y cells assessed as rescue of cell viability at 10 uM preincubated with compound for 24 hrs followed by corticosterone stimulation and measured after 48 hrs by MTT assay relative to control. The settings on record: time 72 hrs. Format: functional.
Series [14] has as its system SH-SY5Y. Put plainly: Neuroprotective activity against corticosterone-induced cytotoxicity in human SH-SY5Y cells assessed as rescue of cell viability at 5 uM preincubated with compound for 24 hrs followed by corticosterone stimulation and measured after 48 hrs by MTT assay (reference value: 41%). It counts as functional. The following applies: time 72 hrs.
The subject of series [15] is SH-SY5Y. Put plainly: Neuroprotective activity against corticosterone-induced cytotoxicity in human SH-SY5Y cells assessed as rescue of cell viability at 10 uM preincubated with compound for 48 hrs followed by corticosterone stimulation and measured after 48 hrs by MTT assay relative to control. It counts as functional. The settings on record: time 96 hrs.
For series [16], the system named is SH-SY5Y. Put plainly: Neuroprotective activity against corticosterone-induced cytotoxicity in human SH-SY5Y cells assessed as rescue of cell viability at 20 uM preincubated with compound for 24 hrs followed by corticosterone stimulation and measured after 48 hrs by MTT assay (reference value: 41%). It counts as functional. The settings on record: time 72 hrs.

Series [17] deals with SH-SY5Y. Put plainly: Neuroprotective activity against corticosterone-induced cytotoxicity in human SH-SY5Y cells assessed as rescue of cell viability at 10 uM preincubated with compound for 72 hrs followed by corticosterone stimulation and measured after 48 hrs by MTT assay relative to control. It counts as functional. The settings on record: time 120 hrs.
In series [18] the test system is SH-SY5Y. Put plainly: Neuroprotective activity against corticosterone-induced cytotoxicity in human SH-SY5Y cells assessed as rescue of cell viability at 10 uM preincubated with compound for 96 hrs followed by corticosterone stimulation and measured after 48 hrs by MTT assay relative to control. It counts as functional. The settings on record: time 144 hrs.
The test system of series [19] is SH-SY5Y. Put plainly: Cytotoxicity against human SH-SY5Y cells assessed as reduction in cell viability at 10 uM measured at 24 to 96 hrs by MTT assay. The following applies: time 24-96 hrs. Format: toxicity, cell-based.
Series [20] can be described thus: Upregulation of BDNF expression in human SH-SY5Y cells at 10 uM incubated for 2 hrs by ELISA. It counts as functional.
The test system of series [21] is SH-SY5Y. Put plainly: Neuroprotective activity against corticosterone-induced cytotoxicity in human SH-SY5Y cells assessed as […] at 10 uM preincubated with compound for 2 hrs followed by corticosterone addition and measured 2 hrs after replacement with fresh media by ELISA. It counts as functional.
In series [22] the test system is SH-SY5Y. Put plainly: Cytotoxicity against human SH-SY5Y cells assessed as reduction in cell viability at 1 to 50 uM measured after 48 hrs by MTT assay. Format: toxicity, cell-based. The following applies: dose 1-50 µM.
Series [23] concerns SH-SY5Y. Put plainly: Neuroprotective activity against corticosterone-induced cytotoxicity in human SH-SY5Y cells assessed as BDNF concentration at 10 uM preincubated with compound for 2 hrs followed by corticosterone addition and measured 2 hrs after replacement with fresh media by ELISA (reference value: 5 pg/ml). It counts as functional.

The source made the active and inactive calls. The rule behind the calls is not given here.

For `C=C(C)[C@@H]1CCC(C)=C[C@H]1c1c(O)cc(CCCCC)cc1O` [CANNABIDIOL], the result in [1], in [4] and in series [6] was inactive. In series [2], the Activity result is recorded as “Non-Toxic”. The result in series [3] was Active. Besides, the inhibition entry in [5] was “inactive”.
Regarding `O=c1cc(-c2ccccc2)oc2c(O)c(O)ccc12` [7,8-DIHYDROXYFLAVONE], the Activity was 19 pg/mL in [7], 86% in [8], 21 pg/mL in [9] and “Non-Toxic” in series [10].
As for `CC1=C[C@@H]2c3c(O)cc(C)cc3OC(C)(C)[C@H]2CC1`, the Activity in series [11] is 0.43 pg/mL; in series [12], 99%; in [13] it was 92%; in series [14] it was 83%; in [15], 98%; in [16], 101%. Also, the Activity is 102% in series [17]; 104% in series [18]; “Non-Toxic” in series [19]; 29 pg/mL in series [20]; 5 pg/mL in series [21]; “Non-Toxic” in series [22]. The Activity in series [23] was determined as 25 pg/mL.
In the case of `CC1=C[C@H]2c3c(O)cc(C)cc3OC(C)(C)[C@@H]2CC1`, the Activity in [11] was 0.22 pg/mL; in series [12] it was 96%; in [13], 89%; in series [14], 79%; in series [15], 90%; in series [16], 97%. Also, the Activity in series [17] was 95%; in series [18] it was 99%; in series [19] it was “Non-Toxic”; in series [20], 21 pg/mL; in [21], 7 pg/mL; in series [22], “Non-Toxic”. For the same compound, the Activity in series [23] stood at 18 pg/mL.
